From publication PMC5766630, “Non-estrogenic Xanthohumol Derivatives Mitigate Insulin Resistance and Cognitive Impairment in High-Fat Diet-induced Obese Mice” (Scientific Reports, 2018)

What was measured:
[1] = system: liver AMPK (pAMPKα/total AMPKα); assay: AMPK activation in liver by Western blot; type: in vivo, mouse; conditions: HFD mice, 30 mg/kg/day, 13 weeks, vs control
Experimental: Approximately 150 mg of frozen liver and muscle tissues were homogenized in tubes containing RIPA buffer with protease and phosphatase inhibitors plus ceramic beads (1.4 mm Ceramic, Bulk Beads, Fisher Scientific, Pittsburgh, PA, USA) using a Precellys 24 (PEQLAB Biotechnology GmbH, Germany). Liver tissue was homogenized for 1 × 30 sec at 6,500 rpm whereas muscle was homogenized for 3 × 30 sec at 6,500 rpm with 20 sec intervals. The homogenates were centrifuged at 15,700 × g for 10 minutes and aliquots (50 µg of protein) of the supernatant (lysate) were separated by SDS-PAGE using 4–15% MP TGX Gels (Bio-Rad # 4561083) and blotted onto nitrocellulose membranes. Membranes were blocked with 5% nonfat milk for 2 h and incubated with antibodies against pAMPK (Phospho-AMPKα (Thr172) Antibody, cat. no. #2531 Cell Signaling Technology, Danvers, MA, USA), AMPK (AMPKα Antibody, cat. no. #2532 Cell Signaling Technology, Danvers, MA, USA), or β-actin (Santa Cruz Biotechnology) for 1 h or overnight. After a second reaction with secondary antibodies (horseradish peroxidase-conjugated IgG goat antirabbit or goat antimouse antibodies), the protein bands on the nitrocellulose membranes were visualized by enhanced chemiluminescence substrate on a Biorad ChemiDocTM MP Imaging System (BioRad Laboratories Inc, Hercules, CA, USA). Band intensities were quantified by densitometry using Image J software.

[2] = system: C57BL/6J mice fed a high-fat diet; assay: 13-week HFD feeding study: body weight, food intake, liver weight, metabolic parameters; type: in vivo, mouse; conditions: 13 weeks; for Body weight gain / HOMA-IR / Fasting plasma glucose / Feed efficiency / Food intake / Liver weight / Plasma cholesterol / Plasma insulin / Plasma leptin / Plasma triglycerides: male C57BL/6J mice, HFD, mean ± SE; for Body weight gain: 30 mg/kg body weight/day in diet; for Body weight gain / Fasting plasma glucose / Feed efficiency / Food intake / Liver weight / Plasma cholesterol / Plasma insulin / Plasma leptin / Plasma triglycerides: n = 11–12; for HOMA-IR / Fasting plasma glucose / Feed efficiency / Food intake / Liver weight / Plasma cholesterol / Plasma insulin / Plasma leptin / Plasma triglycerides: 30 mg/kg/day in diet; for HOMA-IR: insulin (mU/L) × glucose (mmol/L)/22.5
Source text: (§1) Nine-week old male C57BL/6J mice, obtained from The Jackson Laboratory (Bar Harbor, ME, USA), were housed individually in plastic cages under a 12–12-hr light-dark cycle. They were assigned randomly to four groups consisting of 12 mice each. One group (control) was fed a HFD (Dyets Inc., Bethlehem, PA, USA) containing 60%, 20% and 20% total calories from fat, carbohydrate and protein, respectively, and the other three groups were fed the HFD containing XN, DXN, or TXN. The test compounds were dissolved in an isotropic mixture of oleic acid:propylene glycol:Tween 80, 0.9:1:1 by weight (OPT) before incorporation into the HFD. The control diet contained an identical amount of OPT. All diets were prepared in pellet form by Dyets, Inc. (Bethlehem, PA, USA). The mouse diets were formulated to deliver a dose of 30 mg test compound per kg body weight per day. Food intake was measured three times per week and body weights were recorded weekly. At the end of 13 weeks of feeding, the mice were euthanized and blood, liver and skeletal muscle were collected for analyses. All animal protocols were approved by Institutional Animal Care and Use Committee (IACUC) at Oregon State University. Animal experiments were carried out in accordance with the relevant guidelines and regulations.
(§2) Plasma triglycerides and total cholesterol were analyzed with commercially available kits (Fisher-Scientific, Pittsburgh, PA, USA). Plasma glucose was analyzed by a test kit obtained from Wako Diagnostics (Mountain View, CA, USA). Plasma insulin and leptin were analyzed by ELISA kits purchased from Alpco Diagnostics (Salem, NH, USA) and Crystal Chem (Downers Grove, IL, USA), respectively. Homeostasis Model Assessment of Insulin Resistance (HOMA-IR) was calculated as follows: fasting plasma insulin concentration (mU/L) × fasting plasma glucose level (mmol/L)/22.5[95]. Plasma levels of AST and ALT were measured using commercially-available kits (Bioo Scientific Corp., Austin, TX, USA) as indicators of in vivo liver toxicity.
Body weight, food intake, and metabolic measurements: data were analyzed using a one-way ANOVA in PROC GLM for single measures within animals (i.e., liver, plasma, and muscle metabolic measures) and a repeated-measures-in-time design ANOVA in PROC MIXED for repeated measures within animals (i.e., body weight, feed intake, and feed efficiency). The area-under-the-curve (AUC) for the glucose tolerance tests were calculated using the trapezoidal rule. Before statistical analysis, data were examined for variance homogeneity and normality. To achieve normality, liver, plasma, and muscle XN data and plasma insulin data were natural log-transformed. For statistical comparisons, the control group was compared with each XN metabolite group.

[3] = system: progesterone receptor (PGR) expression in MCF-7 cells; assay: Progesterone receptor (PGR) gene expression in MCF-7 cells, real-time PCR; type: cell-based, human; conditions: 20 h; estradiol 1 and 10 nM; 8-PN, XN, DXN, TXN 0.2, 1 and 5 μM; vs 0.1% ethanol
Experimental: MCF-7 cells (American Type Culture Collection, Manassas, VA, USA) were cultured in DMEM (Corning Life Sciences, Tewksbury, MA, USA) supplemented with 10% fetal bovine serum (Corning Life Sciences) and 100 μg/ml penicillin/streptomycin (Invitrogen, Carlsbad, CA, USA). For estrogen-free experiments, cells were seeded in phenol-free DMEM (Gibco/Life Technologies, Grand Island, NY, USA) plus 10% charcoal-dextran-treated FBS (Corning Life Sciences) at 5 × 10^5 cells/well of a 6-well plate. […] Total RNA was isolated using TRIzol (Invitrogen) and converted into cDNA using iScript (Bio-Rad, Hercules, CA, USA). Real-time PCR was performed in triplicate on a CFX-96 (Bio-Rad) using primer-probe assays (IDT Technologies, Coralville, IA, USA) and SsoAdvanced Universal Probes Supermix (Bio-Rad) to quantify progesterone receptor (PGR) and GAPDH levels. The ratio of PGR to GAPDH was calculated as 2^−ΔCt PGR/2^−ΔCt GAPDH. Data were analyzed using a one-way ANOVA (p < 0.05 was considered statistically significant) and a post-hoc Tukey’s multiple comparison test. Induction of the progesterone receptor in MCF-7 cells is one of the indices of estrogenicity of flavonoids such as 8-PN[94].

[4] = system: C57BL/6J mice fed a high-fat diet; assay: In vivo liver toxicity: plasma AST and ALT; design: species or system mouse; conditions: male C57BL/6J mice, HFD, 30 mg/kg/day in diet, 13 weeks; mean ± SE, n = 11–12
Source text: as §1, §2

| Compound | Increase of liver AMPK activation (phosphorylated AMPKα/total AMPKα) [1] | Plasma leptin concentration, change compared with controls ([2]; HFD mice, 30 mg/kg/day) | Body weight gain [2] | HOMA-IR [2] | Fasting plasma glucose [2] | Feed efficiency [2] | Food intake [2] | Liver weight [2] | Plasma cholesterol [2] | Plasma insulin [2] | Plasma leptin [2] | Plasma triglycerides [2] | induction of PGR expression [3] | Plasma ALT [4] | Plasma AST [4] | HOMA-IR index as % of control mice ([2]; HFD mice, 30 mg/kg/day) | Liver weight, change compared with controls ([2]; HFD mice, 30 mg/kg/day) | Plasma insulin, change compared with controls ([2]; HFD mice, 30 mg/kg/day) |
| --- | --- | --- | --- | --- | --- | --- | --- | --- | --- | --- | --- | --- | --- | --- | --- | --- | --- | --- |
| COc1cc(O)c(CC=C(C)C)c(O)c1C(=O)CCc1ccc(O)cc1 [DXN, α,β-Dihydroxanthohumol] | did not cause a significant activation | −26% | 15.1 ± 1.3 g | 22.0 ± 5.2 | 150 ± 13.0 mg/dL | 0.062 ± 0.006 g weight gain/g food intake | 2.66 ± 0.09 g/day | 1.11 ± 0.07 g | 167 ± 8.5 mg/dL | 2.08 ± 0.69 ng/mL | 8.48 ± 1.00 ng/mL | 84.4 ± 4.9 mg/dL | do not induce | 55.8 ± 6.1 U/L | 105.6 ± 6.5 U/L |  |  |  |
| COc1cc(O)c(CCC(C)C)c(O)c1C(=O)CCc1ccc(O)cc1 [TXN, tetrahydroxanthohumol] | did not cause a significant activation | −44% | 9.70 ± 1.4 g | 4.10 ± 0.3 | 118 ± 7.2 mg/dL | 0.042 ± 0.006 g weight gain/g food intake | 2.51 ± 0.09 g/day | 0.93 ± 0.07 g | 167 ± 8.9 mg/dL | 0.49 ± 0.08 ng/mL | 6.39 ± 1.04 ng/mL | 79.3 ± 7.8 mg/dL | do not induce | 56.8 ± 10.5 U/L | 110.5 ± 6.0 U/L | 13 % of control mice | −21% | −82% |
| COc1cc(O)c(CC=C(C)C)c(O)c1C(=O)/C=C/c1ccc(O)cc1 [XN, 3′-[3,3-dimethylallyl]-2′,4′,4-trihydroxy-6′-methoxychalcone] | 24% |  | 16.1 ± 1.3 g | 31.3 ± 1.7 | 169 ± 8.3 mg/dL | 0.068 ± 0.006 g weight gain/g food intake | 2.59 ± 0.09 g/day | 1.14 ± 0.07 g | 196 ± 8.5 mg/dL | 2.61 ± 0.65 ng/mL | 10.6 ± 1.00 ng/mL | 80.6 ± 4.2 mg/dL | do not induce | 68.8 ± 6.8 U/L | 112.3 ± 3.3 U/L |  |  |  |
